Among the test systems are OVCAR-5; Malme-3M; SK-MEL-28; LOX IMVI; ACHN; OVCAR-3; MDA-MB-435; TK-10; MDA-N; EKVX; OVCAR-8; PC-3; NCI-H460; HOP-62; A549; HT-29; U-251; SNB-75; HOP-92; NCI-H226.
Test in all cases: growth of human tumour cells (NCI), 48 h

Molecules are shown by their SMILES.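 How tested: cells in 96-well plates exposed to compound for 48 hours at five concentrations. At the GI50, growth is halved.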 Active and inactive are the calls of the source. Cut-off read from the data, not from the text of the source: active = GI50 up to about 1.1 µM and inactive = higher.

`NCC1CCN(c2nc3ccccc3c3c2CCCC3)CC1`: the GI50 with OVCAR-5 was 11.9 µM (inactive); in the experiment with Malme-3M, 13.2 µM (inactive); in the experiment with SK-MEL-28, 5.15 µM (inactive); in the experiment on LOX IMVI it was 4.81 µM (inactive); in the experiment with ACHN, 12.6 µM (inactive); in the experiment on OVCAR-3 it was 9.75 µM (inactive). In addition, the GI50 in the experiment on MDA-MB-435 was 2.41 µM (inactive); with TK-10, 12.9 µM (inactive); in the experiment with MDA-N it was 2.71 µM (inactive); in the experiment with EKVX it was 11.8 µM (inactive); with OVCAR-8 it was 17.2 µM (inactive); in the experiment with PC-3, 8.93 µM (inactive). Also, the GI50 with NCI-H460 was 5.06 µM (inactive); in the experiment with HOP-62, 14.7 µM (inactive); in the experiment with A549, 11.2 µM (inactive); in the experiment on HT-29, 2.42 µM (inactive); with U-251 it was 5.35 µM (inactive); in the experiment on SNB-75, 4.21 µM (inactive). The values for the GI50 in the experiment with HOP-92 and in the experiment on NCI-H226 were 9.04 µM (inactive) and 16.7 µM (inactive), respectively.

In the case of `CC(=O)c1cccc(NC(=O)C(=O)c2c(O)oc3ccccc3c2=O)c1`, the GI50 in the experiment with OVCAR-5, with Malme-3M, with SK-MEL-28, in the experiment on LOX IMVI, in the experiment with ACHN and with OVCAR-3 was > 100 µM (inactive) throughout. The GI50 with MDA-MB-435, with TK-10, in the experiment on MDA-N, with EKVX, with OVCAR-8 and in the experiment with PC-3 was > 100 µM (inactive) throughout. The GI50 in the experiment with NCI-H460, in the experiment with HOP-62, with A549, in the experiment with HT-29, with U-251 and in the experiment with SNB-75 was > 100 µM (inactive) throughout. The GI50 with HOP-92 and in the experiment on NCI-H226 was > 100 µM (inactive) throughout.

As for `O=C1Nc2ccccc2C1=Nc1ccc(S(=O)(=O)Nc2nccs2)cc1`, the GI50 with OVCAR-5, in the experiment with Malme-3M, with SK-MEL-28, in the experiment with LOX IMVI, in the experiment with ACHN and in the experiment on OVCAR-3 was > 100 µM (inactive) throughout. The GI50 is 92.5 µM (inactive) in the experiment on MDA-MB-435; > 100 µM (inactive) in the experiment with TK-10; > 100 µM (inactive) in the experiment with MDA-N; > 100 µM (inactive) in the experiment with EKVX; > 100 µM (inactive) with OVCAR-8; > 100 µM (inactive) in the experiment on PC-3. Further, the GI50 in the experiment on NCI-H460, in the experiment on HOP-62, in the experiment with A549, in the experiment on HT-29, in the experiment on U-251 and in the experiment with SNB-75 was > 100 µM (inactive) in each case. For the same compound, the GI50 with HOP-92 and in the experiment on NCI-H226 was > 100 µM (inactive) throughout.

For `O=[N+]([O-])c1c(F)c(F)c2c(c1F)N(CCCCCl)c1ccccc1S2`, the GI50 with OVCAR-5 is 18.8 µM (inactive); with Malme-3M, 16.6 µM (inactive); with SK-MEL-28, 5.9 µM (inactive); in the experiment on LOX IMVI, 1.58 µM (inactive); in the experiment with ACHN, 16.5 µM (inactive); with OVCAR-3 it was 7.01 µM (inactive). For the same compound, the GI50 with MDA-MB-435 was 7.71 µM (inactive); with TK-10, 16.9 µM (inactive); in the experiment with MDA-N, 15 µM (inactive); with EKVX, 21.7 µM (inactive); with OVCAR-8 it was 3.16 µM (inactive); in the experiment on PC-3 it was 6.05 µM (inactive). Besides, the GI50 with NCI-H460 was 5.01 µM (inactive); in the experiment with HOP-62, 14.3 µM (inactive); in the experiment on A549 it was 14.4 µM (inactive); with HT-29, 2.54 µM (inactive); in the experiment with U-251, 12.7 µM (inactive); with SNB-75, 6.46 µM (inactive). Moreover, the figures for the GI50 in the experiment with HOP-92 and in the experiment with NCI-H226 were 16.4 µM (inactive) and 17.7 µM (inactive), respectively.

`CC12c3c4cccc3Oc3cc(N)cc(c31)Oc1cc(N)cc(c12)O4`: the GI50 was 4.31 µM (inactive) with OVCAR-5; 2.99 µM (inactive) in the experiment on Malme-3M; 6.21 µM (inactive) in the experiment with SK-MEL-28; 6 µM (inactive) with LOX IMVI; 11.1 µM (inactive) with ACHN; 2.41 µM (inactive) in the experiment on OVCAR-3. Also, the GI50 with MDA-MB-435 is 1.24 µM (inactive); in the experiment on TK-10, 10 µM (inactive); with MDA-N, 1.31 µM (inactive); in the experiment on EKVX, 3.38 µM (inactive); with OVCAR-8 it was 0.524 µM (active); in the experiment with PC-3, 3.58 µM (inactive). Besides, the GI50 with NCI-H460 was 3.48 µM (inactive); in the experiment with HOP-62 it was 5.75 µM (inactive); with A549, 3.77 µM (inactive); with HT-29, 2.01 µM (inactive); with U-251, 6.93 µM (inactive); in the experiment with SNB-75, 3.77 µM (inactive). Also, the GI50 in the experiment on HOP-92 is 21.4 µM (inactive); in the experiment with NCI-H226, 5.62 µM (inactive).

Turning to `COC(=O)CCc1cc(OC)c2c(c1)[C@H](C(=O)OC)[C@@H](c1ccc(O)c(OC)c1)O2`, the GI50 in the experiment with OVCAR-5 was > 100 µM (inactive); in the experiment with Malme-3M, 29.9 µM (inactive); in the experiment on SK-MEL-28 it was 41.9 µM (inactive); in the experiment on LOX IMVI, 57.5 µM (inactive); in the experiment on ACHN, 86.5 µM (inactive); in the experiment on OVCAR-3 it was 47.2 µM (inactive). Further, the GI50 in the experiment with MDA-MB-435 is 15.1 µM (inactive); in the experiment with TK-10, > 100 µM (inactive); in the experiment with MDA-N, 17.7 µM (inactive); with EKVX, 58.2 µM (inactive); in the experiment on OVCAR-8, 78.2 µM (inactive); with PC-3 it was 91.8 µM (inactive). The GI50 is 37.8 µM (inactive) in the experiment with NCI-H460; 77.1 µM (inactive) in the experiment with HOP-62; 39.5 µM (inactive) in the experiment with A549; 36.2 µM (inactive) in the experiment on HT-29; 38.4 µM (inactive) in the experiment with U-251; 43.3 µM (inactive) in the experiment on SNB-75. Further, the GI50 in the experiment on HOP-92 and with NCI-H226 was > 100 µM (inactive) each time.

In the case of `NC(CNO)C(=O)O` (stereo not given), the GI50 in the experiment with OVCAR-5, in the experiment with Malme-3M, in the experiment with SK-MEL-28, in the experiment with LOX IMVI, in the experiment with ACHN and in the experiment with OVCAR-3 was > 100 µM (inactive) in each case. For the same compound, the GI50 in the experiment with MDA-MB-435, with TK-10, in the experiment on MDA-N, with EKVX, in the experiment with OVCAR-8 and with PC-3 was > 100 µM (inactive) throughout. In addition, the GI50 in the experiment on NCI-H460, in the experiment on HOP-62, with A549, with HT-29, in the experiment with U-251 and in the experiment with SNB-75 was > 100 µM (inactive) throughout. In addition, the GI50 with HOP-92 and with NCI-H226 was > 100 µM (inactive) each time.

On to `COC(=O)C1(Cc2ccccc2)Cc2c(C)ccc(C)c2C1=O` (stereo not given), for which the GI50 in the experiment with OVCAR-5 was 69.5 µM (inactive); in the experiment on Malme-3M, 21.4 µM (inactive); with SK-MEL-28, 42.5 µM (inactive); with LOX IMVI it was 17.2 µM (inactive); in the experiment with ACHN, 26.9 µM (inactive); with OVCAR-3, 29.2 µM (inactive). The GI50 in the experiment on MDA-MB-435 was 17.4 µM (inactive); in the experiment with TK-10, 49 µM (inactive); in the experiment with MDA-N, 37.1 µM (inactive); in the experiment on EKVX, 4.69 µM (inactive); in the experiment with OVCAR-8, 14.4 µM (inactive); in the experiment with PC-3, 26.3 µM (inactive). Further, the GI50 in the experiment with NCI-H460 was 31.9 µM (inactive); in the experiment on HOP-62, 56.9 µM (inactive); with A549, 11.1 µM (inactive); in the experiment with HT-29, 19.8 µM (inactive); in the experiment on U-251, 30 µM (inactive); in the experiment with SNB-75, 17.3 µM (inactive). Besides, the figures for the GI50 in the experiment on HOP-92 and with NCI-H226 were 20.1 µM (inactive) and 21.1 µM (inactive), respectively.

As to `CCN(CC)c1nnc(CCCCCCCCc2nnc(N(CC)CC)o2)o1`, the GI50 in the experiment on OVCAR-5, in the experiment with Malme-3M, with SK-MEL-28, in the experiment on LOX IMVI, with ACHN and in the experiment with OVCAR-3 was > 100 µM (inactive) throughout. Moreover, the GI50 in the experiment with MDA-MB-435, in the experiment on TK-10, in the experiment on MDA-N, in the experiment with EKVX, in the experiment on OVCAR-8 and in the experiment on PC-3 was > 100 µM (inactive) throughout. The GI50 in the experiment on NCI-H460, with HOP-62, with A549, with HT-29, in the experiment with U-251 and in the experiment on SNB-75 was > 100 µM (inactive) in each case. Moreover, the GI50 in the experiment with HOP-92 and with NCI-H226 was > 100 µM (inactive) throughout.

As for `Cc1cc(S(=O)(=O)Nc2nc(Nc3ccc(Cl)cc3)n[nH]2)c(S)cc1Cl`, the GI50 in the experiment on OVCAR-5 was > 100 µM (inactive); in the experiment on Malme-3M, > 100 µM (inactive); with SK-MEL-28 it was > 100 µM (inactive); with LOX IMVI, 75.7 µM (inactive); in the experiment with ACHN it was 37.9 µM (inactive); with OVCAR-3, > 100 µM (inactive). Besides, the GI50 with MDA-MB-435 is > 100 µM (inactive); in the experiment with TK-10, > 100 µM (inactive); in the experiment on MDA-N, 55.2 µM (inactive); in the experiment with EKVX it was > 100 µM (inactive); in the experiment with OVCAR-8, > 100 µM (inactive); in the experiment on PC-3, > 100 µM (inactive). In addition, the GI50 is 86.9 µM (inactive) with NCI-H460; 52.5 µM (inactive) in the experiment on HOP-62; > 100 µM (inactive) in the experiment on A549; 81.1 µM (inactive) with HT-29; 27.9 µM (inactive) in the experiment on U-251; > 100 µM (inactive) in the experiment on SNB-75. In addition, the GI50 in the experiment on HOP-92 and with NCI-H226 was > 100 µM (inactive) in each case.
